{"source": "patent US7524860B2", "about": "“Antibacterial agents” (Pfizer Inc., priority 2004, dated 2009)"}
{"tested_on": "Neisseria gonorrhoeae, GC525 (NG-2888)", "experiment": "in-vitro antibacterial activity, microbroth dilution MIC susceptibility testing", "format": "cell-based", "settings": "Neisseria gonorrhoeae, microbroth dilution in gonococcal broth, 20-24 hours at 35 C, lowest concentration preventing visible growth, read-out: MIC", "procedure": "The in-vitro antibacterial activity of selected compounds was determined against a stain of Neisseria gonorrhoeae, GC525 (NG-2888), which is described by Rouquette-Loughlin et al, in Journal of Bacteriology, February 2003, p. 1101-1106, at p. 1103. In general, minimum inhibitory concentration (MIC) susceptibility testing followed procedures recommended by the National Committee for Clinical Laboratory Standards (NCCLS^1-2) or followed the descriptions described below:\nNeisseria gonorrhoeae strains were grown on Chocolate Agar II plates (BBL—Becton Dickinson Microbiology Systems, Cockeysville, Md.) and incubated at 35° C. in a humidified 5% CO2 incubator (Form a Scientific, Marietta Ohio). For microbroth dilution MIC testing, N. gonorrhoeae were tested in gonococcal broth (GCB):\nGram stains were also utilized. Permanent Stock Culture Collection\nBacterial stock cultures are stored as frozen suspensions at −70 C. N. gonorrhoeae cultures are suspended in inactivated Horse Serum (Colorado Serum Company, Denver, Colo.) containing 7.5% glucose prior to snap freezing in a dry ice/ethanol bath.\nPreparation of Standardized Test Inocula and Plate Inoculation\nFrozen stock cultures were used as the initial source of organisms for performing microbroth dilution MIC testing. Stock cultures were passed on their respective growth medium at least one growth cycle (18-24 hours) prior to their use. Bacterial culture suspensions were prepared directly from Chocolate Agar II plates into 10 mL cation-adjusted Mueller-Hinton Broth (CAMHB, BBL, # BB215069). Before use, cultures were adjusted to an optical density value of 1.6-2 on a Perkin-Elmer Lambda EZ150 Spectrophotometer (Wellesley, Mass.) set at a wavelength of 600 nm. Random cultures were plated for validation of actual colony counts. The adjusted cultures were diluted 400-fold (0.25 mL inoculum+100 mL GCB) into gonococcal broth producing a starting inoculum of approximately 5×10^5 cfu/mL. These cultures were inoculated into test plates (100 uL/well) using a Biomek® FX workstation (Beckman Coulter Inc., Fullerton, Calif.). The inoculated plates were placed in stacks of no more than 4 and covered with an empty plate. Plates were incubated for 20-24 hours at 35 C in a humidified CO2 incubator.\nTest Compound (“Drug”) Preparation\nDrug stock solutions (2 mg/mL in DMSO) were prepared on the day of testing. Drugs were weight corrected for assay content where necessary.\nDrug Dilution Tray Preparation\nMicrobroth dilution stock plates were prepared in two dilution series, 64-0.06 ug drug/mL and 1-0.001 ug drug/mL. For the high concentration series, 200 uL of stock solution (2 mg/mL) was added to duplicate rows of a 96-well plate. This was used as the first well in the dilution series. Serial two-fold decremental dilutions were made using a BioMek FX robot (Beckman Coulter Inc., Fullerton, Calif.) with 10 of the remaining 11 wells, each of which contained 100 uL of the appropriate solvent/diluent. Row 12 contained solvent/diluent only and served as the control. For tube one of the low concentration series, 200 uL of a 31.25 ug/mL stock was added to duplicate rows of a 96-well plate. Serial two-fold dilutions were made as described above.\nDaughter plates were spotted (3.2 uL/well) from the stock plates listed above using the BioMek FX robot and were inoculated with organism (100 uL/well) as described previously.\nAfter incubation, the degree of growth in each well was read visually with the aid of a Test Reading Mirror (Dynatech Lab 220-16, Dynex Technologies, Chantilly, Va.). 96-well test plates are read in a darkened room with a single light shining from above. The MIC is the lowest concentration of drug that prevents macroscopically visible growth under the conditions of the test. […] If MIC values in duplicate tests differ by 1 well (two-fold), the […] value is reported. If duplicate tests vary by 2 dilutions (four-fold), the middle value is reported.", "units": {"MIC": "mg/L"}}
{"smiles": "CCNC(=O)Nc1nc2cc(-c3cccnc3)cc(C(=O)N[C@@H](C)c3ccccc3)n2n1", "note": "[Example 42, (S)-2-(3-Ethyl-ureido)-7-pyridin-3-yl-[1,2,4]triazolo[1,5-a]pyridine-5-carboxylic acid(1-phenyl-ethyl)-amide]", "MIC": 8}
{"smiles": "CCNC(=O)Nc1nc2cc(-c3cccnc3)cc(C(=O)NCC(C)(C)C)n2n1", "note": "[Example 43, 2-(3-Ethyl-ureido)-7-pyridin-3-yl-[1,2,4]triazolo[1,5-a]pyridine-5-carboxylic acid (2,2-dimethyl-propyl)-amide]", "MIC": "> 64"}
{"smiles": "CCNC(=O)Nc1nc2cc(-c3cccnc3)cc(C(=O)NC3CCOC3)n2n1", "note": "(centres unmarked) [Example 45, 2-(3-Ethyl-ureido)-7-pyridin-3-yl-[1,2,4]triazolo[1,5-a]pyridine-5-carboxylic acid (tetrahydro-furan-3-yl)-amide]", "MIC": "> 64"}
{"smiles": "CCNC(=O)Nc1nc2cc(-c3cccnc3)cc(C(=O)NCCC3CCCN3C)n2n1", "note": "(centres unmarked) [Example 46, 2-(3-Ethyl-ureido)-7-pyridin-3-yl-[1,2,4]triazolo[1,5-a]pyridine-5-carboxylic acid [2-(1-methyl-pyrrolidin-2-yl)-ethyl]-amide]", "MIC": 1}
{"smiles": "CCNC(=O)Nc1nc2cc(-c3cccnc3)cc(C(=O)NCCCN3CCCC3)n2n1", "note": "[Example 47, 2-(3-Ethyl-ureido)-7-pyridin-3-yl-[1,2,4]triazolo[1,5-a]pyridine-5-carboxylic acid (3-pyrrolidin-1-yl-propyl)-amide]", "MIC": 16}
{"smiles": "CCNC(=O)Nc1nc2cc(-c3cccnc3)cc(C(=O)N[C@H](C)c3ccccc3)n2n1", "note": "[Example 48, (R)-2-(3-Ethyl-ureido)-7-pyridin-3-yl-[1,2,4]triazolo[1,5-a]pyridine-5-carboxylic acid(1-phenyl-ethyl)-amide]", "MIC": 16}
{"smiles": "CCNC(=O)Nc1nc2cc(-c3cccnc3)cc(C(=O)N3CCC(N(CC)CC)C3)n2n1", "note": "(centres unmarked) [Example 49, 1-[5-(3-Diethylamino-pyrrolidine-1-carbonyl)-7-pyridin-3-yl-[1,2,4]triazolo[1,5-a]pyridin-2-yl]-3-ethyl-urea]", "MIC": "> 64"}
{"smiles": "CCNC(=O)Nc1nc2cc(-c3cccnc3)cc(C(=O)Nc3nccs3)n2n1", "note": "[Example 50, 2-(3-Ethyl-ureido)-7-pyridin-3-yl-[1,2,4]triazolo[1,5-a]pyridine-5-carboxylic acidthiazol-2-ylamide]", "MIC": 2}
{"smiles": "CCNC(=O)Nc1nc2cc(-c3cccnc3)cc(C(=O)N(C)Cc3nnc(C)o3)n2n1", "note": "[Example 51, 2-(3-Ethyl-ureido)-7-pyridin-3-yl-[1,2,4]triazolo[1,5-a]pyridine-5-carboxylic acid methyl-(5-methyl-[1,3,4]oxadiazol-2-ylmethyl)-amide]", "MIC": 64}
{"smiles": "CCNC(=O)Nc1nc2cc(-c3cccc(C)c3)cc(C(=O)NCC)n2n1", "note": "[Example 52, 2-(3-Ethyl-ureido)-7-m-tolyl-[1,2,4]triazolo[1,5-a]pyridine-5-carboxylic acid ethylamide]", "MIC": 4}
{"smiles": "CCNC(=O)Nc1nc2cc(-c3ccc(F)c(C)c3)cc(C(=O)NCC)n2n1", "note": "[Example 53, 2-(3-Ethyl-ureido)-7-(4-fluoro-3-methyl-phenyl)-[1,2,4]triazolo[1,5-a]pyridine-5-carboxylic acid ethylamide]", "MIC": 16}
{"smiles": "CCNC(=O)Nc1nc2cc(-c3ccccc3OC)cc(C(=O)NCC)n2n1", "note": "[Example 54, 2-(3-Ethyl-ureido)-7-(2-methoxy-phenyl)-[1,2,4]triazolo[1,5-a]pyridine-5-carboxylic acid ethylamide]", "MIC": "> 64"}
{"smiles": "CCNC(=O)Nc1nc2cc(-c3ccc(F)c(F)c3)cc(C(=O)NCC)n2n1", "note": "[Example 55, 7-(3,4-Difluoro-phenyl)-2-(3-ethyl-ureido)-[1,2,4]triazolo[1,5-a]pyridine-5-carboxylic acid ethylamide]", "MIC": 2}
{"smiles": "CCNC(=O)Nc1nc2cc(-c3ccc4c(c3)CCO4)cc(C(=O)NCC)n2n1", "note": "[Example 57, 7-(2,3-Dihydro-benzofuran-5-yl)-2-(3-ethyl-ureido)-[1,2,4]triazolo[1,5-a]pyridine-5-carboxylic acid ethylamide]", "MIC": 2}
{"smiles": "CCNC(=O)Nc1nc2cc(-c3ccc(C(C)(C)C)cc3)cc(C(=O)NCC)n2n1", "note": "[Example 58, 7-(4-tert-Butyl-phenyl)-2-(3-ethyl-ureido)-[1,2,4]triazolo[1,5-a]pyridine-5-carboxylic acid ethylamide]", "MIC": 2}
{"smiles": "CCNC(=O)Nc1nc2cc(-c3cccc(SC)c3)cc(C(=O)NCC)n2n1", "note": "[Example 60, 2-(3-Ethyl-ureido)-7-(3-methyl-sulfanyl-phenyl)-[1,2,4]triazolo[1,5-a]pyridine-5-carboxylic acid ethylamide]", "MIC": "> 16"}
{"smiles": "CCNC(=O)Nc1nc2cc(-c3ccc(C(C)C)cc3)cc(C(=O)NCC)n2n1", "note": "[Example 61, 2-(3-Ethyl-ureido)-7-(4-isopropyl-phenyl)-[1,2,4]triazolo[1,5-a]pyridine-5-carboxylic acid ethylamide]", "MIC": 2}
{"smiles": "CCNC(=O)Nc1nc2cc(-c3cccc(C(C)C)c3)cc(C(=O)NCC)n2n1", "note": "[Example 62, 2-(3-Ethyl-ureido)-7-(3-isopropyl-phenyl)-[1,2,4]triazolo[1,5-a]pyridine-5-carboxylic acid ethylamide]", "MIC": 2}
{"smiles": "CCNC(=O)Nc1nc2cc(-c3ccc(F)cc3C)cc(C(=O)NCC)n2n1", "note": "[Example 63, 2-(3-Ethyl-ureido)-7-(4-fluoro-2-methyl-phenyl)-[1,2,4]triazolo[1,5-a]pyridine-5-carboxylic acid ethylamide]", "MIC": 8}
{"smiles": "CCNC(=O)Nc1nc2cc(-c3ccc(F)cc3F)cc(C(=O)NCC)n2n1", "note": "[Example 64, 7-(2,4-Difluoro-phenyl)-2-(3-ethyl-ureido)-[1,2,4]triazolo[1,5-a]pyridine-5-carboxylic acid ethylamide]", "MIC": "> 64"}
{"smiles": "CCNC(=O)Nc1nc2cc(-c3ccccc3C#N)cc(C(=O)NCC)n2n1", "note": "[Example 65, 7-(2-Cyano-phenyl)-2-(3-ethyl-ureido)-[1,2,4]triazolo[1,5-a]pyridine-5-carboxylic acid ethylamide]", "MIC": 32}
{"smiles": "CCNC(=O)Nc1nc2cc(-c3cc(F)ccc3F)cc(C(=O)NCC)n2n1", "note": "[Example 66, 7-(2,5-Difluoro-phenyl)-2-(3-ethyl-ureido)-[1,2,4]triazolo[1,5-a]pyridine-5-carboxylic acid ethylamide]", "MIC": 4}
{"smiles": "CCNC(=O)Nc1nc2cc(-c3cccc(Cl)c3)cc(C(=O)NCC)n2n1", "note": "[Example 67, 7-(3-Chloro-phenyl)-2-(3-ethyl-ureido)-[1,2,4]triazolo[1,5-a]pyridine-5-carboxylic acid ethylamide]", "MIC": 1}
{"smiles": "CCNC(=O)Nc1nc2cc(-c3ccc(C)cc3)cc(C(=O)NCC)n2n1", "note": "[Example 68, 2-(3-Ethyl-ureido)-7-p-tolyl-[1,2,4]triazolo[1,5-a]pyridine-5-carboxylic acid ethylamide]", "MIC": 2}
{"smiles": "CCNC(=O)Nc1nc2cc(-c3ccc(F)cc3)cc(C(=O)NCC)n2n1", "note": "[Example 69, 2-(3-Ethyl-ureido)-7-(4-fluoro-phenyl)-[1,2,4]triazolo[1,5-a]pyridine-5-carboxylic acid ethylamide]", "MIC": 8}
{"smiles": "CCNC(=O)Nc1nc2cc(-c3cccc(F)c3)cc(C(=O)NCC)n2n1", "note": "[Example 70, 2-(3-Ethyl-ureido)-7-(3-fluoro-phenyl)-[1,2,4]triazolo[1,5-a]pyridine-5-carboxylic acid ethylamide]", "MIC": 1}
